Where two headings read alike, the source gives them in different places. Numbered stars: 1 amine (or outer) side, 2 acyl side, 3 side chain; on linkers, the order of the positions; unused ones are H or OH. Bridge positions count the residues as written; N and C are the ends. Square brackets hold non-standard residues; d marks the D form. Peptide text beside a SMILES is read from it. * marks the point of attachment. Phe(4-NO2) = N[C@@H](Cc1ccc([N+](=O)[O-])cc1)C(=O)O; Phe(4-CF3) = N[C@@H](Cc1ccc(C(F)(F)F)cc1)C(=O)O; Bip = N[C@@H](Cc1ccc(-c2ccccc2)cc1)C(=O)O; Phe(4-NH2) = Nc1ccc(C[C@H](N)C(=O)O)cc1; Phe(4-Me) = Cc1ccc(C[C@H](N)C(=O)O)cc1; d(hhPhe) = N[C@H](CCCc1ccccc1)C(=O)O; d(hPhe) = N[C@H](CCc1ccccc1)C(=O)O; mTyr = N[C@@H](Cc1cccc(O)c1)C(=O)O; 3Pal = N[C@@H](Cc1cccnc1)C(=O)O; d2Thi = N[C@H](Cc1cccs1)C(=O)O; Suc = O=C(CCC(=O)[*:2])[*:1]; X2 = O=C(O)[C@H]1CCCN(*)C1; 3Abz = Nc1cccc(C(=O)O)c1; OtBu = CC(C)(C)O*
Biological target: T1, TNFα / TNFα receptor (TNFα R1/Fc) (Homo sapiens, UniProt P01375)
T1 construct: purchased R&D Systems
Test: Inhibition of binding of TNFα to the TNFα receptor (plate ELISA competition)
Conditions: Table 2
Method: The compounds listed in Table 2 below were assayed for ability to inhibit binding of TNFα to the TNFα receptor (TNFα R1/Fc). The assays were performed as described in the following procedure: TNFα (R&D Systems) was coated on high binding plate wells (Corning 96-well) at a single uniform concentration of 15 nM, 100 μL/well in PBS. The coating proceeded for 30 minutes at 37° C. then 10 minutes at 4° C. The coated plate was washed with PBST, then 250 μL/well of blocking solution (PBST 0.1% BSA, bovine serum albumin) was added and incubation proceeded for 30-45 minutes at room temperature with agitation. The solution phase competition proceeded separately with the dilutions of test compound in PBST (phosphate buffered saline with Tween 20), 2% DMSO in a polypropylene plate (Corning 96-well storage plate) with a single concentration, 8.33 nM of the high affinity receptor for TNFα (R&D Systems). This solution phase incubation proceeded for 30 minutes at room temperature with agitation and was then added to the washed TNFα coated assay plate, 100 μL/well, and was incubated for a further 30 minutes at room temperature with agitation. The assay plate was washed and 100 μL goat anti-human IgG (Fc) HRP labeled antibody in PBST, 13 pM, (KPL Cat#04-10-2) was added to each well. This incubation proceeded for 25-30 minutes at room temperature with agitation. Following this incubation step, the plate was washed and a 100 μL TMB solution (SUREBLUE™ TMB Peroxidase substrate, KPL) was added per well and allowed to stand approximately 3-5 minutes for development. The TMB reaction was stopped with the addition of 0.5N HCl and then the plate was read for absorbance at 450 nm.

[1] = read-out: Activity (IC50, inhibition of TNFα binding to TNFα R1/Fc)
[2] = Activity (IC50, inhibition of TNFα binding to TNFα R1/Fc)

T1 sequence (P01375 77-233 limits assumed, species assumed): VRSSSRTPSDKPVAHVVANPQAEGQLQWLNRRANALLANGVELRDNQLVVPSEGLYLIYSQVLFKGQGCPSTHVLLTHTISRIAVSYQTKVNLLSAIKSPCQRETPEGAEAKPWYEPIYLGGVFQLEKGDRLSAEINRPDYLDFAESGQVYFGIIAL

Row | IC50 [1] [µM] | Structure (SMILES) | IC50 [2] [µM]
1 | > 100 | Cc1ccc(C[C@@H]2NC(=O)[C@@H](Cc3cccs3)NC(=O)CCC(=O)Nc3ccc(cc3)C[C@@H](C(=O)O)NC(=O)[C@@H](Cc3ccccc3)NC2=O)cc1 [Compound 103] ([d2Thi][Phe(4-Me)][dF][Phe(4-NH2)]-OH; linker N-4 via Suc) | –
2 | 10 to 30 | COc1cccc(-c2ccc(C[C@@H]3NC(=O)[C@@H](CCc4ccccc4)NC(=O)CCC(=O)Nc4ccc(cc4)C[C@@H](C(=O)O)NC(=O)[C@@H](Cc4ccccc4)NC3=O)cc2)c1 [Compound 110] | –
3 | > 100 | O=C1COc2ccc(cc2)C[C@H](C(=O)O)NC(=O)[C@H](Cc2ccccc2)NC(=O)[C@@H](Cc2ccc(-c3ccccc3)cc2)NC(=O)[C@H](Cc2cccs2)N1 [Compound 675] | –
4 | > 100 | O=C1CCC(=O)N[C@H](Cc2cccs2)C(=O)N[C@@H](Cc2ccc([N+](=O)[O-])cc2)C(=O)N[C@H](Cc2ccccc2)C(=O)N[C@H](C(=O)O)Cc2ccc(cc2)N1 [Compound 106] ([d2Thi][Phe(4-NO2)][dF][Phe(4-NH2)]-OH; linker N-4 via Suc) | –
5 | < 10 | O=C(O)CCCNC(=O)[C@@H]1Cc2ccc(cc2)OCC(=O)N[C@@H](Cc2ccncc2)C(=O)N[C@H](Cc2ccc(-c3ccccc3)cc2)C(=O)N[C@@H](Cc2ccccc2F)C(=O)N1 [Compound 719] | –
6 | – | O=C1COc2ccc(cc2)C[C@@H](C(=O)N[C@H](Cc2ccccc2)C(=O)O)NC(=O)[C@H](Cc2cccs2)NC(=O)[C@@H](Cc2ccc(-c3ccccc3)cc2)NC(=O)[C@H](Cc2cccs2)N1 [Compound 588] | < 10
7 | 30 to 100 | O=C1N[C@H](Cc2ccccc2)C(=O)N[C@H](C(=O)O)Cc2ccc(cc2)NC(=O)[C@H](O)[C@@H](O)C(=O)N[C@H](Cc2cccs2)C(=O)NC1c1ccc(Br)cc1 (stereo partly shown) [Compound 294] | –
8 | < 10 | O=C1COc2ccc(cc2)C[C@@H](C(=O)O)NC(=O)[C@H](Cc2ccc(-c3ccccn3)cc2)NC(=O)[C@@H](Cc2ccc(-c3ccccc3)cc2)NC(=O)[C@H](Cc2ccncc2)N1 [Compound 643] | –
9 | > 100 | COC(=O)[C@@H]1Cc2ccc(cc2)NC(=O)CCC(=O)N[C@H](CC(=O)O)C(=O)N[C@@H](Cc2ccc(C(F)(F)F)cc2)C(=O)N[C@H](Cc2ccccc2)C(=O)N1 [Compound 206] ([dD][Phe(4-CF3)][dF][Phe(4-NH2)]-OMe; linker N-4 via Suc) | –
10 | > 100 | COc1ccc(C[C@@H]2NC(=O)[C@H](Cc3cccs3)NC(=O)COc3ccc(cc3)C[C@@H](C(=O)O)NC(=O)[C@H](Cc3ccccc3)NC2=O)cc1OC [Compound 406] | –
11 | < 10 | O=C(O)CCCNC(=O)[C@H]1Cc2ccc(cc2)OCC(=O)N[C@@H](Cc2c[nH]c3ccccc23)C(=O)N[C@H](Cc2ccc(-c3ccccc3)cc2)C(=O)N[C@@H](Cc2c[nH]c3ccccc23)C(=O)N1 [Compound 716] | –
12 | > 100 | O=C1COc2ccc(cc2)C[C@@H](C(=O)O)NC(=O)[C@@H](CCc2ccccc2)NC(=O)[C@H](Cc2ccc(-c3ccccc3)cc2)NC(=O)[C@@H](Cc2ccc(O)cc2)N1 [Compound 521] | –
13 | > 100 | O=C1CCC(=O)N[C@H](CCc2ccccc2)C(=O)N[C@@H](Cc2ccc(-c3ccccc3)cc2)C(=O)N[C@H](Cc2ccccc2)C(=O)N[C@H](C(=O)Nc2cccc(C(=O)O)c2)Cc2ccc(cc2)N1 [Compound 352] ([d(hPhe)][Bip][dF][Phe(4-NH2)][3Abz]-OH; linker N-4 via Suc) | –
14 | > 100 | O=C(O)[C@H](Cc1ccccc1)NC(=O)[C@H]1Cc2ccc(cc2)NC(=O)[C@H](O)[C@@H](O)C(=O)N[C@H](Cc2cccs2)C(=O)N[C@@H](Cc2ccc(Br)cc2)C(=O)N[C@H](Cc2ccccc2)C(=O)N1 [Compound 431] | –
15 | < 10 | O=C1COc2ccc(cc2)C[C@@H](C(=O)O)NC(=O)[C@H](Cc2ccc(-c3ccncc3)cc2)NC(=O)[C@@H](Cc2ccc(-c3ccccc3)cc2)NC(=O)[C@H](Cc2ccncc2)N1 [Compound 645] | –
16 | < 10 | O=C1COc2ccc(cc2)C[C@@H](C(=O)O)NC(=O)[C@H](CCc2ccccc2)NC(=O)[C@@H](Cc2ccc(-c3ccccc3)cc2)NC(=O)[C@H](CCCc2ccccc2)N1 [Compound 509] | –
17 | > 100 | O=C1CCC(=O)N[C@H](Cc2cccs2)C(=O)N[C@@H](Cc2cccc(O)c2)C(=O)N[C@H](Cc2ccccc2)C(=O)N[C@H](C(=O)O)Cc2ccc(cc2)N1 [Compound 102] ([d2Thi][mTyr][dF][Phe(4-NH2)]-OH; linker N-4 via Suc) | –
18 | > 100 | O=C1CCC(=O)N[C@H](Cc2cccs2)C(=O)N[C@@H](Cc2ccc(-c3ccccc3)cc2)C(=O)N[C@H](Cc2ccccc2)C(=O)N[C@H](C(=O)N2CCC[C@H](C(=O)O)C2)Cc2ccc(cc2)N1 [Compound 37] ([d2Thi][Bip][dF][Phe(4-NH2)]-X2; linker N-4 via Suc) | –
19 | < 10 | O=C(O)CNC(=O)[C@@H]1Cc2ccc(cc2)OCC(=O)N[C@@H](Cc2ccncc2)C(=O)N[C@H](Cc2ccc(-c3ccccc3)cc2)C(=O)N[C@@H](CCc2ccccc2)C(=O)N1 [Compound 558] | –
20 | – | O=C1COc2ccc(cc2)C[C@@H](C(=O)NCc2nnn[nH]2)NC(=O)[C@H](Cc2ccccc2)NC(=O)[C@@H](Cc2ccc(-c3ccccc3)cc2)NC(=O)[C@H](Cc2cccs2)N1 [Compound 591] | < 10
21 | 30 to 100 | O=C1CCC(=O)N[C@H](CCCc2ccccc2)C(=O)N[C@@H](Cc2ccc(C(F)(F)F)cc2)C(=O)N[C@H](Cc2ccccc2)C(=O)N[C@H](C(=O)O)Cc2ccc(cc2)N1 [Compound 136] ([d(hhPhe)][Phe(4-CF3)][dF][Phe(4-NH2)]-OH; linker N-4 via Suc) | –
22 | < 10 | N#Cc1cccc(C[C@H]2CC(=O)N[C@H](C(=O)O)Cc3ccc(cc3)OCC(=O)N[C@@H](Cc3cccs3)C(=O)N[C@H](Cc3ccc(-c4ccccc4)cc3)C(=O)N2)c1 [Compound 641] | –
23 | < 10 | O=C(O)[C@H](Cc1ccccc1)NC(=O)[C@H]1Cc2ccc(cc2)NC(=O)[C@H](O)[C@@H](O)C(=O)N[C@@H](Cc2cccs2)C(=O)N[C@H](Cc2ccc(-c3ccccc3)cc2)C(=O)N[C@@H](Cc2ccccc2)C(=O)N1 [Compound 434] | –
24 | < 10 | O=C1COc2ccc(cc2)C[C@@H](C(=O)O)NC(=O)[C@H](Cc2ccc(-c3ccccn3)cc2)NC(=O)[C@@H](Cc2ccc(-c3ccccc3)cc2)NC(=O)[C@H](Cc2cccs2)N1 [Compound 632] | –
25 | > 100 | CC(C)(C)OC(=O)CC[C@@H]1NC(=O)[C@H](Cc2ccc(-c3ccccc3)cc2)NC(=O)[C@@H](Cc2cccs2)NC(=O)CCC(=O)Nc2ccc(cc2)C[C@@H](C(=O)O)NC1=O [Compound 66] ([d2Thi][Bip]E(OtBu)[Phe(4-NH2)]-OH; linker N-4 via Suc) | –
26 | < 10 | O=C(O)CNC(=O)CNC(=O)[C@@H]1Cc2ccc(cc2)OCC(=O)N[C@@H](Cc2cccs2)C(=O)N[C@H](Cc2ccc(-c3ccccc3)cc2)C(=O)N[C@@H](CCc2ccccc2)C(=O)N1 [Compound 479] | –
27 | < 10 | O=C(O)CCNC(=O)[C@@H]1Cc2ccc(cc2)NC(=O)[C@H](O)[C@@H](O)C(=O)N[C@H](Cc2cccs2)C(=O)N[C@@H](Cc2ccc(-c3ccccc3)cc2)C(=O)N[C@H](CCc2ccccc2)C(=O)N1 [Compound 401] | –
28 | > 100 | O=C1CCC(=O)N[C@H](Cc2cccs2)C(=O)N[C@@H](Cc2ccc(-c3ccccc3)cc2)C(=O)N[C@@H](Cc2cccnc2)C(=O)N[C@H](C(=O)O)Cc2ccc(cc2)N1 [Compound 52] ([d2Thi][Bip][3Pal][Phe(4-NH2)]-OH; linker N-4 via Suc) | –

— patent US8338565B2, “Macrocyclic compounds for inhibition of tumor necrosis factor alpha” (Ensemble Therapeutics Corporation, priority 2008, dated 2012)
